In ChEMBL document CHEMBL1158904, “New metabolites from the sponge Spongia agaricina” (J Nat Prod, 1998):
Values after ≈ are worked out from the molar mass of the structure shown.

Legend:
Type in all cases: functional, cell-based
P388 = test: Cytotoxicity against mouse P388 cells
HT-29 = test: Cytotoxicity against human HT-29 cells
A549 = test: Cytotoxicity against human A549 cells
SK-MEL-28 = test: Cytotoxicity against human SK-MEL-28 cells

Compound: CC(=O)O[C@H]1C[C@H]2[C@]3(C)CC[C@H]4C(C)(C)CCC[C@]4(C)[C@H]3C[C@@H](O)[C@]2(C)[C@H]2OC(=O)C=C12
- IC50 (P388): 5 µg/mL (≈ 11.2 µM)
- IC50 (HT-29): 5 µg/mL (≈ 11.2 µM)
- IC50 (A549): 5 µg/mL (≈ 11.2 µM)
- IC50 (SK-MEL-28): 5 µg/mL (≈ 11.2 µM)

Compound: CC(C)[C@@H](C)/C=C/[C@@H](C)[C@H]1CC[C@@H](C2=C[C@@H]3O[C@@]34C[C@@H](O)CC[C@]4(C)C2=O)[C@]1(C)CC=O [3-O-DEACETYLLUFFASTEROL B]
- IC50 (P388): 1 µg/mL (≈ 2.26 µM)
- IC50 (HT-29): 1 µg/mL (≈ 2.26 µM)
- IC50 (A549): 1 µg/mL (≈ 2.26 µM)
- IC50 (SK-MEL-28): 1 µg/mL (≈ 2.26 µM)

Compound: C=C(CC[C@@H](C)[C@H]1CC[C@@H](C2=C[C@@H]3O[C@@]34C[C@@H](O)CC[C@]4(C)C2=O)[C@]1(C)CC=O)C(C)C
- IC50 (P388): 1 µg/mL (≈ 2.26 µM)
- IC50 (HT-29): 1 µg/mL (≈ 2.26 µM)
- IC50 (A549): 1 µg/mL (≈ 2.26 µM)
- IC50 (SK-MEL-28): 1 µg/mL (≈ 2.26 µM)

Compound: CC(=O)O[C@@H]1C[C@H]2[C@]3(C)CC[C@H]4C(C)(C)CCC[C@]4(C)[C@H]3C[C@@H](O)[C@]2(C)c2occc21
- IC50 (P388): 1 µg/mL (≈ 2.33 µM)
- IC50 (HT-29): 1 µg/mL (≈ 2.33 µM)
- IC50 (A549): 1 µg/mL (≈ 2.33 µM)
- IC50 (SK-MEL-28): 1 µg/mL (≈ 2.33 µM)
